The NIST ThermoML archive (doi:10.1021/je200039y)
Numbers after ± are expanded uncertainties.

Legend:
[1] = Liquid
[2] = refractive index (Na D-line) (dimensionless); conditions: 298 K; 101.33 kPa; Liquid; Standard Abbe refractometry
[3] = 350.43 K, Closed cell (Static) method
[4] = 350.3 K, Closed cell (Static) method
[5] = 343.15 K, Ebulliometric method (Recirculating still)

With C=C(C)C [2-methylpropene] the “vapor or sublimation pressure” value [1, 3] was 1154.3 ± 5 kPa.

In the case of C/C=C/C [(E)-2-butene], the “vapor or sublimation pressure” value [1, 4] is reported as 929.2 ± 4 kPa.

With CCCC [butane] the “vapor or sublimation pressure” value ([1]; 350.36 K, Closed cell (Static) method) was 951.7 ± 4.1 kPa.

With CSSC [2,3-dithiabutane] the refractive index [2] was 1.5226 ± 0.0007, the “vapor or sublimation pressure” value ([1]; 343.15 K, Closed cell (Static) method) was 27.8 ± 0.4 kPa and the “vapor or sublimation pressure” value [1, 4] was 36.1 ± 0.8 kPa. For the same molecule, the “vapor or sublimation pressure” value ([1]; 350.38 K, Closed cell (Static) method) was 36 ± 0.8 kPa, the “vapor or sublimation pressure” value [1, 3] was 35.8 ± 0.8 kPa and the “vapor or sublimation pressure” value ([1]; 350.55 K, Closed cell (Static) method) was 36.1 ± 0.8 kPa.

For CCO [ethanol], the refractive index [2] was 1.3593 ± 0.0007 and the “vapor or sublimation pressure” value [1, 5] was 72.5 ± 0.6 kPa.

In the case of CCOC(C)(C)C [2-ethoxy-2-methylpropane], the refractive index [2] is reported as 1.373 ± 0.0007 and the “vapor or sublimation pressure” value [1, 5] is reported as 92.9 ± 0.7 kPa.

In the case of CC(C)C [2-methylpropane], the “vapor or sublimation pressure” value ([1]; 350.54 K, Closed cell (Static) method) is reported as 1269.5 ± 5.5 kPa.

Cc1ccccc1C [1,2-dimethylbenzene] gave a refractive index [2] of 1.5026 ± 0.0007.
